This note sets out measurements from article PMC6445327, “Inhibition of the α-carbonic anhydrase from Vibrio cholerae with amides and sulfonamides incorporating imidazole moieties” (Journal of Enzyme Inhibition and Medicinal Chemistry, 2017).

Each structure is given as a SMILES string. Converted amounts (≈) assume the structure as drawn. Bounds are passed on as bounds.

Data set [1] concerns the target VchCA (Vibrio cholerae α-carbonic anhydrase) (Vibrio cholerae, UniProt Q9KMP6). Kind of data set: biochemical. The procedure:
(§1) The uncatalyzed rates were determined in the same manner and subtracted from the total observed rates. Stock solutions of inhibitor (0.01 mM) were prepared in distilled–deionised water with 5% DMSO and dilutions up to 0.1 nM were done thereafter with the assay buffer. The Inhibition constant (KI) was obtained by considering the classical Michaelis–Menten equation, which has been fitted by non-linear least squares by using PRISM 3. All CA isozymes used in the experiments were purified recombinant proteins obtained as reported earlier by our group.

Data set [2] deals with V. cholerae O1 strain ISS-Vc014 (multiresistant clinical isolate). Kind of data set: In vitro antibacterial assay (broth dilution). It is filed as cell-based, Vibrio cholerae. As to conditions: for concentration inhibiting bacterial growth: 37 °C, 18–20 h, tryptic soy broth. On the technique in general: Dilution methods test growth across graded concentrations, often in twofold steps.

Data set [3] addresses T1, hCA I (Homo sapiens, UniProt P00915).
T1 construct: made in house
Kind of data set: Stopped-flow CO2 hydration assay, CA inhibition. It is filed as biochemical. As for the experimental part:
as §1

For data set [4], the target named is T2, hCA II (Homo sapiens, UniProt P00918).
T2 construct: made in house
Kind of data set: Stopped-flow CO2 hydration assay, CA inhibition. It is filed as biochemical. The procedure: as §1

For data set [5], the system named is V. cholerae O1 reference strain ATCC14103. Kind of data set: In vitro antibacterial assay (broth dilution). It is filed as cell-based, Vibrio cholerae. The conditions noted are these: for concentration inhibiting bacterial growth: 37 °C, 18–20 h, tryptic soy broth.
Data set [6] is described as follows: Limit of solubility in the antibacterial test. As to conditions: 37 °C.
Data set [7] concerns two V. cholerae O1 strains (ATCC14103 and ISS-Vc014). Nature of the data set: In vitro antibacterial assay (broth dilution), strain not distinguished. Format: cell-based, Vibrio cholerae. As to conditions: up to 3 mg ml^−1 (the limit of solubility).

T1 sequence (P00915 whole entry): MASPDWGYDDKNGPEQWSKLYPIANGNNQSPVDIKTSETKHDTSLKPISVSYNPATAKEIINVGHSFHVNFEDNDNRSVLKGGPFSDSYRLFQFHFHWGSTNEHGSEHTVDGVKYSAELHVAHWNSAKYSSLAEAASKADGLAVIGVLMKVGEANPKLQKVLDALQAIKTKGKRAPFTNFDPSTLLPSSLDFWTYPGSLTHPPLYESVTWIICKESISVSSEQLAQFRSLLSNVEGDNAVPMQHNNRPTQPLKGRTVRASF
Sequence of VchCA (Vibrio cholerae α-carbonic anhydrase) (Q9KMP6 entry or part of it): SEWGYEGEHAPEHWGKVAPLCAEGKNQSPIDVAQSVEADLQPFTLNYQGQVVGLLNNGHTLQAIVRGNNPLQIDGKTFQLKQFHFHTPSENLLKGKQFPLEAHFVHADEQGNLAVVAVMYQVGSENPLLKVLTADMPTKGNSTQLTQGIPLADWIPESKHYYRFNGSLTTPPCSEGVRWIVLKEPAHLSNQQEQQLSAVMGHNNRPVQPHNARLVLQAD

In turn, `O=S(=O)(NCCCn1ccnc1)c1ccc(F)cc1` [Compound 2, N-(3-(1H-imidazol-1-yl)propyl)-4-fluorobenzenesulfonamide] registered a melting point of 121 to 123 °C. For the same compound, affinity in data set [1] was put at a Ki of 0.0085 µM. For the same compound, in data set [2], the “activity compared to ampicillin” value is listed as “comparable activity” and the “concentration inhibiting bacterial growth” value was found to be 2 mg/mL. Affinity in data set [3] was put at a Ki of 1.7 µM. Moreover, the Ki in data set [4] is > 10 µM. In data set [5], the “activity compared to ampicillin” value was “less active” and the “concentration inhibiting bacterial growth” value came out at 2 mg/mL.

The compound `O=C(NCCCn1ccnc1)c1ccc(C(F)(F)F)cc1` [Compound 7, N-(3-(1H-imidazol-1-yl)propyl)-4-(trifluoromethyl)benzamide] returned a melting point of 106 to 107 °C. Besides, the solubility in data set [6] came out at 3000 µg/mL (≈ 10.1 mM). Moreover, in data set [1], the affinity, expressed as Ki, was 0.0104 µM. Besides, in data set [7], the “inhibition of the bacterial growth at higher concentrations” value is listed as “not active”. Besides, the Ki in data set [3] was 2.55 µM. Besides, the inhibition constant (Ki) in data set [4] is > 10 µM.

`O=C(NCCCc1ccccc1)c1ccc([N+](=O)[O-])cc1` [Compound 10, 4-Nitro-N-(3-phenylpropyl)benzamide]: the melting point fell in the range of 95 to 97 °C. The compound also had a Ki in data set [1] of 0.0078 µM. Besides, the Ki in data set [3] was > 50 µM. For the same compound, the inhibition constant Ki in data set [4] is > 50 µM.

Turning to `O=C(NCCCn1ccnc1)c1ccc(-c2ccccc2)cc1` [Compound 9, N-(3-(1H-imidazol-1-yl)propyl)-[1,1′-biphenyl]-4-carboxamide], the Ki in data set [1] was 0.0054 µM; in data set [3], > 50 µM; in data set [4] it was > 50 µM.

Turning to `O=C(NCCCn1ccnc1)c1ccc([N+](=O)[O-])cc1` [Compound 8, N-(3-(1H-imidazol-1-yl)propyl)-4-nitrobenzamide], the melting point was 152 to 154 °C. In data set [6], this compound had a solubility of 3000 µg/mL (≈ 10.9 mM). The compound also showed a Ki in data set [1] of 0.011 µM. Moreover, the “inhibition of the bacterial growth at higher concentrations” value in data set [7] is “partially active”. In data set [3], the Ki was 1.73 µM. Also, in data set [4], the inhibition constant (Ki) was > 10 µM.

Turning to `CC1(C)S[C@@H]2[C@H](NC(=O)[C@H](N)c3ccccc3)C(=O)N2[C@H]1C(=O)O` [Ampicillin, reference compound], the “concentration inhibiting bacterial growth” value was 1.0 mg/mL in data set [2] and “higher than 0.01 mg ml^−1” in data set [5].

In turn, `O=S(=O)(NCCCn1ccnc1)c1ccc(C(F)(F)F)cc1` [Compound 3, N-(3-(1H-imidazol-1-yl)propyl)-4-(trifluoromethyl)benzenesulfonamide] returned a melting point of 127 to 128 °C. Further, the Ki in data set [1] amounted to 0.0064 µM. In addition, the Ki in data set [3] was > 50 µM. Besides, the Ki in data set [4] was > 50 µM.

`CS(=O)(=O)NCCCn1ccnc1` [Compound 1, N-(3-(1H-imidazol-1-yl)propyl)methanesulfonamide] yielded a melting point of 89 to 91 °C. In data set [1], this compound returned a Ki of 0.0109 µM. The compound also gave an inhibitory constant (Ki) in data set [3] of 0.387 µM. Also, in data set [4], the Ki is > 10 µM.

In the case of `O=C(NCCCn1ccnc1)c1ccc(F)cc1` [Compound 6, N-(3-(1H-imidazol-1-yl)propyl)-4-fluorobenzamide], the melting point was 70 to 72 °C. Further, the Ki in data set [1] worked out at 0.0091 µM. For the same compound, the Ki in data set [3] was > 50 µM. The inhibition constant Ki in data set [4] is > 50 µM.

Turning to `CC(=O)NCCCn1ccnc1` [Compound 5, N-(3-(1H-imidazol-1-yl)propyl)acetamide], the inhibitory constant (Ki) is 0.0392 µM in data set [1], > 50 µM in data set [3] and > 50 µM in data set [4].

As for `O=[N+]([O-])c1ccc(S(=O)(=O)NCCCn2ccnc2)cc1` [Compound 4, N-(3-(1H-imidazol-1-yl)propyl)-4-nitrobenzenesulfonamide], the melting point lay in the range of 140 to 141 °C. The affinity in data set [1] corresponds to a Ki of 0.0062 µM. In data set [3], the inhibition constant Ki was > 50 µM. For the same compound, the inhibitory constant (Ki) in data set [4] was > 50 µM.

A word on the Ki: it is the dissociation constant of the complex between target and ligand, obtained from inhibition or displacement. What is called melting point is the temperature of the solid-liquid transition. By solubility is commonly meant how much of the substance goes into solution per volume.
